Test results reported in ChEMBL document CHEMBL4152386, “Discovery of a Novel Inhaled PI3Kδ Inhibitor for the Treatment of Respiratory Diseases” (J Med Chem, 2018).

Legend:
[1] = target: PI3-kinase p110-alpha/p85-alpha (Homo sapiens, UniProt P42336)
Description: Inhibition of recombinant human N-terminal His6-tagged full length p110alpha/recombinant human full length p85alpha using PIP2 as substrate preincubated for 30 mins followed by substrate addition by HTRF assay

PI3K p110 beta/p85 alpha = PI3K p110 beta/p85 alpha (Homo sapiens, UniProt P42338)
Description: Inhibition of recombinant human N-terminal His6-tagged full length p110beta/recombinant human full length p85alpha using PIP2 as substrate preincubated for 30 mins followed by substrate addition and HTRF assay

[2] = target: PI3-kinase p110-delta/p85-alpha (Homo sapiens, UniProt O00329)
Description: Inhibition of recombinant human N-terminal His-tagged full length p110delta/recombinant human full length p85alpha using PIP2 as substrate preincubated for 30 mins followed by substrate addition by HTRF assay

[3] = target: Phosphatidylinositol 4,5-bisphosphate 3-kinase catalytic subunit gamma isoform (Homo sapiens, UniProt P48736); test: Inhibition of recombinant human N-terminal His6-tagged full length p110gamma using PIP2 as substrate preincubated for 30 mins followed by substrate addition by HTRF assay
[4] = Drug metabolism in rat liver microsomes assessed as disappearance of parent compound at 5 uM preincubated for 3 mins followed UDPG addition and measured after 120 mins by UPLC-MS/MS analysis; type: ADME, microsome; conditions: read-out: Drug metabolism
[5] = Drug metabolism in rat liver microsomes assessed as disappearance of parent compound at 5 uM after 30 mins in presence of NADPH by UPLC-MS/MS analysis; type: ADME, microsome; conditions: read-out: Drug metabolism
[6] = Drug metabolism in human liver microsomes assessed as disappearance of parent compound at 5 uM preincubated for 3 mins followed UDPG addition and measured after 120 mins by UPLC-MS/MS analysis; type: ADME, microsome; conditions: read-out: Drug metabolism
[7] = Drug metabolism in human liver microsomes assessed as disappearance of parent compound at 5 uM after 30 mins in presence of NADPH by UPLC-MS/MS analysis; type: ADME, microsome; conditions: read-out: Drug metabolism

Chain of PI3-kinase p110-alpha/p85-alpha (P27986 whole entry): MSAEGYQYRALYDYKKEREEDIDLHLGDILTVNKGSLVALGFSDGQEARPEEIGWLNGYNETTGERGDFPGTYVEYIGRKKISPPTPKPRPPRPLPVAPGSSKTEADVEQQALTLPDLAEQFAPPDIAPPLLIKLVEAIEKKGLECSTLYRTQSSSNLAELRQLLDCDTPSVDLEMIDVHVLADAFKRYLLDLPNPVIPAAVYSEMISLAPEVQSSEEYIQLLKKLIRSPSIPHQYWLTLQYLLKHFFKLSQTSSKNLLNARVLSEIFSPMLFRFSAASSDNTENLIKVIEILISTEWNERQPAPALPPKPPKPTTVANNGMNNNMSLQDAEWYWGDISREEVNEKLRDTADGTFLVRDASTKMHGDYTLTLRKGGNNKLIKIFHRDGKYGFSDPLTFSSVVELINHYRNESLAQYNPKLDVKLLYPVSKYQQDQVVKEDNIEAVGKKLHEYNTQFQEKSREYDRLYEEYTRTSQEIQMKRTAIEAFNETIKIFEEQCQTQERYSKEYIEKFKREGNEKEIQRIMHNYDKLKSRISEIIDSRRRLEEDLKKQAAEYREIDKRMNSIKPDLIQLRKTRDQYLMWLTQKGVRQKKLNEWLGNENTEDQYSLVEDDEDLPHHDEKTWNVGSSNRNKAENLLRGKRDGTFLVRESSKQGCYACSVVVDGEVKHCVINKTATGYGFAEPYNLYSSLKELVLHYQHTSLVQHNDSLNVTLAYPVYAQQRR
Chain of PI3-kinase p110-alpha/p85-alpha (P42336 whole entry): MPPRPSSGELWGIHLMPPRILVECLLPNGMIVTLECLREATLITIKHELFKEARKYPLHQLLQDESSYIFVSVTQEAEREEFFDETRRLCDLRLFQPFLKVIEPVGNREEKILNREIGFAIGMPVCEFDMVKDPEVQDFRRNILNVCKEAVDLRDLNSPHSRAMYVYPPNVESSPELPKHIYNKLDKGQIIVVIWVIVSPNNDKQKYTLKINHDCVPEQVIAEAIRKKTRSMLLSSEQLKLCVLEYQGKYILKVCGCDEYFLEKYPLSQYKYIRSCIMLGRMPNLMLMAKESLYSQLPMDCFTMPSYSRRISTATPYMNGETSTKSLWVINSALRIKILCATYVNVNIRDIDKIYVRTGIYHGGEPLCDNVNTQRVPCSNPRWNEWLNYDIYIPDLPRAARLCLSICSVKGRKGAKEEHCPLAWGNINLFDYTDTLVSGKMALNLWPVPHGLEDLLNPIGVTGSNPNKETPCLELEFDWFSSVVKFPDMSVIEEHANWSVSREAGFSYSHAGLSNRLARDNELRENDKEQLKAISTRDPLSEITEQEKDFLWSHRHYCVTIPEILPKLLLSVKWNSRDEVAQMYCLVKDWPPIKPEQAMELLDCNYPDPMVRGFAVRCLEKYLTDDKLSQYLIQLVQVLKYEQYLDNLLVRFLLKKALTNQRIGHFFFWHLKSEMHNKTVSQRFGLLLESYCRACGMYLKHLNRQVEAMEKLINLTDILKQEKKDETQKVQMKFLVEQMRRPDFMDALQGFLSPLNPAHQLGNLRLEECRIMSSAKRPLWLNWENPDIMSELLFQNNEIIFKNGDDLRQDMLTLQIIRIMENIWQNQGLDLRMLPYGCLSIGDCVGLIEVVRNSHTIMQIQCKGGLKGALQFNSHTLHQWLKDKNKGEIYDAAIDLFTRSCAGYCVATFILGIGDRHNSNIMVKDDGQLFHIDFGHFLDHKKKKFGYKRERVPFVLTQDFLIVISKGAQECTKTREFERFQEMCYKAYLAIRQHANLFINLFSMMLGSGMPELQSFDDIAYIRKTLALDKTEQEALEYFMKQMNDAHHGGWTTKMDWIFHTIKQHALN
Chain of PI3K p110 beta/p85 alpha (P27986 whole entry): as the sequence (P27986 whole entry) above
Chain of PI3K p110 beta/p85 alpha (P42338 whole entry): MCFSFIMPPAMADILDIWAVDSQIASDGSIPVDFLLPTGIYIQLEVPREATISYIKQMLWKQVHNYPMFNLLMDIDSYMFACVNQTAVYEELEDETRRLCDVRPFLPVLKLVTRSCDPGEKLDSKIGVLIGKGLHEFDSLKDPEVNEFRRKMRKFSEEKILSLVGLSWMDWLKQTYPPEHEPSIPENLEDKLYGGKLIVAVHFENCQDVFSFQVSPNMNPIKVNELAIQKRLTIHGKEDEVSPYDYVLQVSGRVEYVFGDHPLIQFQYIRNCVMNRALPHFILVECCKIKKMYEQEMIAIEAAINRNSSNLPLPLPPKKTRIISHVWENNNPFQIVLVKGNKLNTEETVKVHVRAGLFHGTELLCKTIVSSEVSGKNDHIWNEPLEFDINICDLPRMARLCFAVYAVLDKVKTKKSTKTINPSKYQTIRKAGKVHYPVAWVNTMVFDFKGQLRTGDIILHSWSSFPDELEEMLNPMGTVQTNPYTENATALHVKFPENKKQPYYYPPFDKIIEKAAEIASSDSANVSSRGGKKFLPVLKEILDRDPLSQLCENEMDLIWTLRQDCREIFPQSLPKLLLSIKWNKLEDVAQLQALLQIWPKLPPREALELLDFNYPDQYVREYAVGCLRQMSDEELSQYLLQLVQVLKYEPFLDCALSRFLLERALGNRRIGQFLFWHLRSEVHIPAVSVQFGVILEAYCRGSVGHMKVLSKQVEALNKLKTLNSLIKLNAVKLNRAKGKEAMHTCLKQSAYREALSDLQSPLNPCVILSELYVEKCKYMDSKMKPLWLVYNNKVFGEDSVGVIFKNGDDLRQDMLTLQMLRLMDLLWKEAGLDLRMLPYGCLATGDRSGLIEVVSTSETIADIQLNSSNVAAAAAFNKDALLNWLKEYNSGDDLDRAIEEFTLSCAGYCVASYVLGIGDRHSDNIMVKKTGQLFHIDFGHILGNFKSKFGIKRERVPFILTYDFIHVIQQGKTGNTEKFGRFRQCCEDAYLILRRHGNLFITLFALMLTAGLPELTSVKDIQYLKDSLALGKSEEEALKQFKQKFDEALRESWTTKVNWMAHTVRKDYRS
Chain of PI3-kinase p110-delta/p85-alpha (P27986 whole entry, canonical isoform): as the sequence (P27986 whole entry) above
Chain of PI3-kinase p110-delta/p85-alpha (O00329 whole entry, canonical isoform): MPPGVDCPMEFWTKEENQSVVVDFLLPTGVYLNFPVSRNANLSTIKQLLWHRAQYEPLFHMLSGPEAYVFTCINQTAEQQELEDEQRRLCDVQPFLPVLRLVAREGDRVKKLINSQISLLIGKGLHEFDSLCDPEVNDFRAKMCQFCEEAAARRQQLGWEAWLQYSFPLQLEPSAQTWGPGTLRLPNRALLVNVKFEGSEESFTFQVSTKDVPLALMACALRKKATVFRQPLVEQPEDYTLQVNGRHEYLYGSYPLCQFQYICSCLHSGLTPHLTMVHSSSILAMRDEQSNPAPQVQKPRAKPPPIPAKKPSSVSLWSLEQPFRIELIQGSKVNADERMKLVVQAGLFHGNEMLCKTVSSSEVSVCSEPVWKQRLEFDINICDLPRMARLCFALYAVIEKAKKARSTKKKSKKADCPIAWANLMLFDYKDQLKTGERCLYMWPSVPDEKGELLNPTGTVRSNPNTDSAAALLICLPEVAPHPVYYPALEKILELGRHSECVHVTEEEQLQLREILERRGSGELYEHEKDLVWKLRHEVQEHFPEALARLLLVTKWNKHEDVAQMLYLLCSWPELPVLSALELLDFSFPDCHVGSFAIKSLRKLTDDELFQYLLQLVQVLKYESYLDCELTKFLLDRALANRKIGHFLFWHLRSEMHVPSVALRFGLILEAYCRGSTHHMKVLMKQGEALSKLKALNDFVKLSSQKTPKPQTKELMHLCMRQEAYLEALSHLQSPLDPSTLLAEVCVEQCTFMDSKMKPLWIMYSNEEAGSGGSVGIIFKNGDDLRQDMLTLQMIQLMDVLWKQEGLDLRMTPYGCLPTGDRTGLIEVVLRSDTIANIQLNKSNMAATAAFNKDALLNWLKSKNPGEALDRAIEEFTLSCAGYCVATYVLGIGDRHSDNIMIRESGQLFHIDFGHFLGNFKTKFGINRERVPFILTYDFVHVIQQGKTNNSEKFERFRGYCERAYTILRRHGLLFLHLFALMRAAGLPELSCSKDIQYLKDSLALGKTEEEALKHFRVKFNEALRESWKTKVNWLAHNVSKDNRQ
Chain of Phosphatidylinositol 4,5-bisphosphate 3-kinase catalytic subunit gamma isoform (P48736 whole entry, canonical isoform): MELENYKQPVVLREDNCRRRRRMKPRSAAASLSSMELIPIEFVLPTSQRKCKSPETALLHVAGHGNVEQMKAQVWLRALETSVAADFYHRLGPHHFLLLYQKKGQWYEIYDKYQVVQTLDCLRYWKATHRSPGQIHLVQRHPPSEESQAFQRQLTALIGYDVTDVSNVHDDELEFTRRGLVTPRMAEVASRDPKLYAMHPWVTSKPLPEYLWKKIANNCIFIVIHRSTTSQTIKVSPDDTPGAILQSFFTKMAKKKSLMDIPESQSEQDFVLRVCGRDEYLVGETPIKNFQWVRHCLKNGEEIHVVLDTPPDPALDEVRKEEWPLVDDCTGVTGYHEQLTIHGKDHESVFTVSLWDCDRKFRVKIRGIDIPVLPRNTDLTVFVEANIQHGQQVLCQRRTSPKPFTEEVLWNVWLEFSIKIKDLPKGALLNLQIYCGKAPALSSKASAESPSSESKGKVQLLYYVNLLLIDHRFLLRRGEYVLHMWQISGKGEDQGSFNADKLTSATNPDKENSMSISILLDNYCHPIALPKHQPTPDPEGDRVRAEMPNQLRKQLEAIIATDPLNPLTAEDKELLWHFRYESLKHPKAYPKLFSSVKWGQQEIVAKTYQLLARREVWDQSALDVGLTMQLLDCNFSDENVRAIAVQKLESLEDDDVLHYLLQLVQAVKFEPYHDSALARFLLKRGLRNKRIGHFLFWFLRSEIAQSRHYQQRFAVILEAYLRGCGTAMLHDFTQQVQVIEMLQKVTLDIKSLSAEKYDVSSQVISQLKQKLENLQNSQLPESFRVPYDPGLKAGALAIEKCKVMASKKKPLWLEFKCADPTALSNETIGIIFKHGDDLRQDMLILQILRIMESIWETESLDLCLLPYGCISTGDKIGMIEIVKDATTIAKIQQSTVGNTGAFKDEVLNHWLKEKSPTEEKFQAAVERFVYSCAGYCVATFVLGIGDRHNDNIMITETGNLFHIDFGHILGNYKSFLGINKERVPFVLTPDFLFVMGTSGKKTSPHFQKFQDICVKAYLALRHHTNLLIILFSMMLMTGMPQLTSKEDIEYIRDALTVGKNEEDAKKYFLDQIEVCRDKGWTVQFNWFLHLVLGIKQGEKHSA

SMILES	IC50 [1]	IC50 (PI3K p110 beta/p85 alpha)	IC50 [2]	IC50 [3]	metabolised at 2 h, 5 µM [4]	metabolised at 0.5 h, 5 µM [5]	metabolised at 2 h, 5 µM [6]	metabolised at 0.5 h, 5 µM [7]
Cc1ccn2nc([C@H](C)Nc3ncnc(N)c3C#N)n(-c3ccccc3)c(=O)c12	2300 nM	120 nM	1 nM	65 nM				
Cc1ccn2nc([C@H](C)Nc3ncnc(N)c3-c3cc(O)cc(Cl)c3)n(-c3ccccc3)c(=O)c12	560 nM	57 nM	0.2 nM		83%	54%	97%	55%
Cc1ccn2nc([C@H](C)Nc3ncnc4[nH]cc(-c5cccc(F)c5O)c34)n(-c3ccccc3)c(=O)c12	1000 nM	52 nM	1.9 nM	12 nM		27%		41%
Cc1ccn2nc([C@H](C)Nc3ncnc4[nH]cc(-c5ccccc5O)c34)n(-c3ccccc3)c(=O)c12			5.1 nM			72%		99%
Cc1ccn2nc([C@H](C)Nc3ncnc4[nH]cc(Sc5cccc(O)c5)c34)n(-c3ccccc3)c(=O)c12	770 nM	170 nM	1 nM		74%	64%	84%	99%
Cc1ccn2nc([C@H](C)Nc3ncnc(N)c3Sc3cccc(O)c3)n(-c3ccccc3)c(=O)c12	8400 nM	950 nM	1.8 nM	45 nM		94%		100%
Cc1ccn2nc([C@H](C)Nc3ncnc(N)c3-c3cnc(N)nc3)n(-c3ccccc3)c(=O)c12		360 nM		120 nM			6%	27%
Cc1ccn2nc([C@H](C)Nc3ncnc(N)c3C(=O)Nc3cccc(O)c3)n(-c3ccccc3)c(=O)c12	1400 nM	39 nM	0.2 nM	10 nM		42%		60%
Cc1ccn2nc([C@H](C)Nc3ncnc(N)c3Cc3cccc(O)c3)n(-c3ccccc3)c(=O)c12	6600 nM	3000 nM	22 nM					
COc1cc(-c2c[nH]c3ncnc(N[C@@H](C)c4nn5ccc(C)c5c(=O)n4-c4ccccc4)c23)ccc1O	1.2 nM	1.3 nM	0.2 nM	0.3 nM				
Cc1ccn2nc([C@H](C)Nc3ncnc(N)c3-c3cc(O)cc(F)c3)n(-c3ccccc3)c(=O)c12	1900 nM	110 nM	0.6 nM	40 nM	26%	75%	74%	84%
Cc1ccn2nc([C@H](C)Nc3ncnc(N)c3-c3cc(O)cc(C(F)(F)F)c3)n(-c3ccccc3)c(=O)c12	310 nM	10 nM	0.2 nM	6.8 nM				
Cc1ccn2nc([C@H](C)Nc3ncnc4[nH]cc(-c5cc(O)cc(NS(C)(=O)=O)c5)c34)n(-c3ccccc3)c(=O)c12	22 nM	2.5 nM	0.2 nM	0.7 nM	28%	16%	94%	67%
Cc1ccn2nc([C@H](C)Nc3ncnc4[nH]cc(Cc5cccc(O)c5)c34)n(-c3ccccc3)c(=O)c12	2900 nM	210 nM	1.4 nM	64 nM		72%		100%
Cc1ccn2nc([C@H](C)Nc3ncnc(N)c3-c3ccc4oc(=O)[nH]c4c3)n(-c3ccccc3)c(=O)c12		1300 nM	11 nM	430 nM				
Cc1ccn2nc([C@H](C)Nc3ncnc4[nH]cc(-c5cnn(C)c5)c34)n(-c3ccccc3)c(=O)c12	230 nM	22 nM	0.2 nM	3.6 nM	6%	36%	91%	91%
C[C@H](Nc1ncnc(N)c1C#N)c1nn2cccc2c(=O)n1-c1ccccc1						16%		
Cc1ccn2nc([C@H](C)Nc3ncnc(N)c3-c3cc(O)cc(NS(C)(=O)=O)c3)n(-c3ccccc3)c(=O)c12				15 nM				
Cc1ccn2nc([C@H](C)Nc3ncnc4[nH]cc(-c5cccc6[nH]ccc56)c34)n(-c3ccccc3)c(=O)c12	410 nM	12 nM	0.2 nM	17 nM		74%		92%
Cc1ccn2nc([C@H](C)Nc3ncnc(N)c3-c3ccc4cc[nH]c4c3)n(-c3ccccc3)c(=O)c12	8500 nM	140 nM		420 nM		47%	9.6%	50%

More lines, in order of falling IC50 (PI3K p110 beta/p85 alpha), values ahead:

IC50 [1]	IC50 (PI3K p110 beta/p85 alpha)	IC50 [2]	IC50 [3]	metabolised at 2 h, 5 µM [4]	metabolised at 0.5 h, 5 µM [5]	metabolised at 2 h, 5 µM [6]	metabolised at 0.5 h, 5 µM [7]	SMILES
8400 nM	1700 nM	22 nM	160 nM	21%	22%	76%	84%	Cc1ccn2nc([C@H](C)Nc3ncnc(N)c3-c3ccc(O)cc3)n(-c3ccccc3)c(=O)c12
1000 nM	230 nM	2 nM	13 nM					Cc1ccn2nc([C@H](C)Nc3ncnc4[nH]cc(C(=O)Nc5cccc(O)c5)c34)n(-c3ccccc3)c(=O)c12
	79 nM	1.3 nM						Cc1ccn2nc([C@H](C)Nc3ncnc4[nH]cc(-c5cccc6cc[nH]c56)c34)n(-c3ccccc3)c(=O)c12
730 nM	37 nM	0.3 nM	1.7 nM		32%		97%	Cc1ccn2nc([C@H](C)Nc3ncnc(N)c3-c3cccc(NS(C)(=O)=O)c3)n(-c3ccccc3)c(=O)c12
190 nM	29 nM	0.3 nM	3.1 nM		23%		74%	Cc1ccn2nc([C@H](C)Nc3ncnc4[nH]cc(-c5cccc(NS(C)(=O)=O)c5)c34)n(-c3ccccc3)c(=O)c12
760 nM	14 nM	0.2 nM	81 nM	44%	58%	90%	99%	COc1cccc(-c2c[nH]c3ncnc(N[C@@H](C)c4nn5ccc(C)c5c(=O)n4-c4ccccc4)c23)c1O
250 nM	7.3 nM	0.3 nM	3.3 nM		21%		58%	Cc1ccn2nc([C@H](C)Nc3ncnc4[nH]cc(-c5cc(C(F)(F)F)ccc5O)c34)n(-c3ccccc3)c(=O)c12
	4.3 nM	0.4 nM			21%		97%	Cc1ccn2nc([C@H](C)Nc3ncnc4[nH]cc(-c5cn[nH]c5)c34)n(-c3ccccc3)c(=O)c12
110 nM	4.1 nM	0.4 nM	0.7 nM					Cc1ccn2nc([C@H](C)Nc3ncnc4[nH]cc(-c5ccc(O)cc5)c34)n(-c3ccccc3)c(=O)c12
9 nM	2.3 nM	0.2 nM	0.6 nM					Cc1ccn2nc([C@H](C)Nc3ncnc4[nH]cc(-c5cc(O)cc(F)c5)c34)n(-c3ccccc3)c(=O)c12
